We go through 6 molecules from paper PMC10902301, “Interactions between the protein barnase and co-solutes studied by NMR” (Communications Chemistry, 2024).

Assay [1] addresses T1, barnase (Bacillus amyloliquefaciens, UniProt P00648, H149A). The following applies: for binding to barnase (in words): from curvature of chemical shift profiles; for mL for amide protons (1HN), mean ± standard deviation over residues: single co-solute titration up to 1 M, 5 mM acetate pH 5.8.
Procedure: (§1) For each titration point, protein 2D peak positions were measured and loaded into a database. […] We hypothesized that the hyperbolic parts indicate direct binding of the co-solute to the protein, while the linear parts represent indirect effects on the protein chemical shifts caused by interactions of the co-solute with the solvent, which thus leads to altered protein solvation. Linear changes in shift could also arise from co-solute-induced conformational changes in the protein. […] We therefore fitted the data to a sum of two equations: a hyperbolic curve plus a linear change. Fitting to the hyperbolic curve gives a resultant binding affinity, which can be tabulated as either a dissociation constant Kd (with units of concentration) or an association constant Ka (with units of reciprocal concentration). […] Thus in the analysis below, we use Ka when examining binding to the protein surface. We note that the linear change is in fact a binding curve with very weak affinity, and will therefore start to curve at some point. Based on the likely affinities, curvature is unlikely to become apparent until the co-solute reaches a concentration of several M.
(§2) For fitting shift changes to obtain the dissociation constant, one would normally use a quadratic equation[36]:1 Δδobs=Δδmax{([P]i+[L]i+Kd)–[([P]i+[L]i+Kd)^2−4[P]i[L]i]^1/2}/2[P]I
(§3) We have therefore used it throughout. The complete equation used here for fitting the experimental shift changes is therefore3 Δδobs=Δδmax.Li/Kd+Li+mLLi which gives three fitted values for each nucleus: Kd, Δδmax, and mL. mL is the gradient of the linear component, and gives information on the indirect effect of the co-solute on protein chemical shifts via its effect on solvent. […] We discuss later the significance of mL: for present purposes, it is an empirical parameter that describes how the co-solute affects the protein indirectly via solvent.
(§4) For these reasons, all experiments were carried out using 5 mM acetate, pH 5.8, conditions that gave reproducible peak positions while using only a very low concentration of additional solutes.
(§5) Chemical shifts of ^1HN, ^15N, and ^13C’ were measured and fitted to Eq. (3).
The next assay concerns protein surfaces. The following applies: molecular dynamics; ref Vrbka et al J Phys Chem B 2006 110:7036-7043; cited from earlier work.
In assay [2] the target is T1, barnase. The assay is described as follows: biochemical. Conditions: average dissociation constant Kd at thiocyanate binding region, residues 35–46, 81–86; single binding site assumed; pH 5.8.
Procedure: as §1, §2, §3, §4, §5

Where “and” joins values, the source holds several entries; their conditions need not be identical. Equal values may be shown once. Where a name gives a salt, the structure may show the parent alone.

T1 sequence (P00648 48-157 H149A): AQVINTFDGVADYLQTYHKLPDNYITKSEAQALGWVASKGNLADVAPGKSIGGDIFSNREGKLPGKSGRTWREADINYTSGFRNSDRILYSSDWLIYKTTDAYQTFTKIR

For `Cl` [chloride, sodium chloride], on barnase [1], the “binding to barnase (in words)” value was “overall weaker binding” and the “mL for amide protons (1HN), mean ± standard deviation over residues” value (“mL … mean ± standard deviation over residues” below) is listed as “–16 ± 26 ppb/M”. The “contact times with protein surfaces in water” value with protein surfaces was 0.1-0.8 ns.
In the case of `C[N+](C)(C)[O-]` [TMAO, trimethylamine N-oxide], on barnase [1], the “binding to barnase (in words)” value is listed as “only very weak binding” and the “mL … mean ± standard deviation over residues” value is reported as “+9.7 ± 16.9 ppb/M”.
On to `CC1=N[C@H](C(=O)O)CCN1` [ectoine], for which, on barnase [1], the “binding to barnase (in words)” value was “very little binding” and the “mL … mean ± standard deviation over residues” value is reported as “+16.5 ± 21.3 ppb/M”.
For `C[N+](C)(C)CC(=O)O` [betaine, N-trimethyl glycine], at barnase [1], the “binding to barnase (in words)” value was “no binding” and the “mL … mean ± standard deviation over residues” value was “+4.3 ± 15.9 ppb/M”. The “average Ka over all nuclei” value at barnase [1] (osmolyte titrations, average over residues that could be fitted) is reported as “no evidence of any binding”.
As to `N#CS` [thiocyanate, sodium thiocyanate], the “average Ka” value on barnase [1] (average over binding-site residues 35–46 and 81–86, 1HN, 15N, 13C' nuclei) is listed as “about 45 M^−1”. Further, the “mL … mean ± standard deviation over residues” value at barnase [1] is on record as “–51 ± 51 ppb/M”. The Kd at barnase [2] was 22 mM and ~22 mM.
As for `O=S(=O)(O)O` [sulfate, sodium sulfate], the “contact times with protein surfaces in water” value in the assay on protein surfaces is listed as 0.1-0.8 ns.

One may read the Kd as the concentration at which binding is half-saturated. A lower Kd goes with a tighter complex.
